{"source": "ChEMBL document CHEMBL6074686", "about": "(Eur J Med Chem, 2025)", "key": {"MCF7 [1]": {"test_system": "MCF7", "experiment": "Inhibition of colony formation in human MCF7 cells incubated for 72 hrs by crystal violet staining based assay", "type": "functional, cell-based", "conditions": "dose 3.125-50 nM"}, "SK-OV-3 [2]": {"test_system": "SK-OV-3", "experiment": "Inhibition of cell migration in human SK-OV-3 cells assessed as wound closure ratio at 25 nM incubated for 24 hrs by wound healing assay (reference value: 100%)", "type": "functional", "design": "scale not given: the % may be the effect or the level left"}, "SK-OV-3 [3]": {"test_system": "SK-OV-3", "experiment": "Inhibition of cell migration in human SK-OV-3 cells assessed as area of migrated cells at 5 nM incubated for 24 hrs by crystal violet staining based inverted microscopic analysis (reference value: 30.1 +/- 1.3 mm^3)", "type": "functional"}, "Tubulin (Homo sapiens) [4]": {"biological_target": "T1, Tubulin (Homo sapiens) (UniProt P68371+Q9H4B7+P0DPH7+P68366+Q13509+Q71U36+P04350+Q3ZCM7+P07437+P68363+Q9BQE3+Q6PEY2+Q13885+Q9BVA1+Q9BUF5)", "experiment": "Inhibition of tubulin polymerization (unknown origin) assessed as reduction in optical density at 340 nm", "type": "protein-complex assay", "conditions": "dose 5-20 µM"}, "MCF7 [5]": {"test_system": "MCF7", "experiment": "Inhibition of cell migration in human MCF7 cells assessed as wound closure at 2.5 nM incubated for 24 hrs by wound healing assay (reference value: 44.5 +/- 8.8%)", "type": "functional", "design": "scale not given: the % may be the effect or the level left"}, "SK-OV-3 [6]": {"test_system": "SK-OV-3", "experiment": "Inhibition of cell migration in human SK-OV-3 cells assessed as ratio of migrated cells at 20 nM incubated for 24 hrs by Transwell assay (reference value: 100 %)", "type": "functional", "design": "scale not given: the % may be the effect or the level left"}, "[7]": {"experiment": "Toxicity in female BALB/c nude mouse xenografted with human SK-OV-3 cells assessed as drug tolerance by measuring body weight loss at 15 mg/kg, administered via tail vein for 5 days and measured daily", "type": "organism-based", "conditions": "in vivo, iv, 120 h, time 5 day"}, "MCF7 [8]": {"test_system": "MCF7", "experiment": "Inhibition of cell migration in human MCF7 cells assessed as increase in cell density at 0 to 10 nM incubated for 24 hrs by wound healing assay", "type": "functional, cell-based", "conditions": "dose 0-10 nM"}, "Tubulin (Homo sapiens) [9]": {"biological_target": "T1, Tubulin (Homo sapiens)", "experiment": "Inhibition of tubulin polymerization (unknown origin) assessed as reduction in optical density at 340 nm at 20 uM relative to control", "type": "protein-complex assay"}}, "note": "Active and inactive are the calls of the source. The calls are words filed in the database; no cut-off is given here."}
{"compound": "CNc1nc(N2CCCc3cc(OC)ccc32)c2cc(F)ccc2n1", "values": [{"measurement": "inhibition", "setting": "MCF7 [1]", "value": "Dose-dependent-effect"}, {"measurement": "Activity", "setting": "SK-OV-3 [2]", "value": 51.4, "unit": "%"}, {"measurement": "Activity", "setting": "SK-OV-3 [3]", "value": 14.7, "unit": "mm3"}, {"measurement": "inhibition", "setting": "Tubulin (Homo sapiens) [4]", "value": "Dose-dependent-effect"}, {"measurement": "Activity", "setting": "MCF7 [5]", "value": 44, "unit": "%"}, {"measurement": "Activity", "setting": "SK-OV-3 [6]", "value": 11.9, "unit": "%"}, {"measurement": "Activity", "setting": "[7]", "value": "Toxic"}, {"measurement": "inhibition", "setting": "MCF7 [8]", "value": "Active"}, {"measurement": "inhibition", "setting": "Tubulin (Homo sapiens) [9]", "value": 100, "unit": "%"}]}
